From patent US20260285850A1, “SUBSTITUTED OXAZOLIDINONES AND IMIDAZOLINONES AS HERBICIDES” (FMC CORPORATION, priority 2023, published 2026)

Tests used:
Type in all cases: in vivo
[1] = test system: barnyardgrass (Echinochloa crus-galli); assay: Test A preemergence soil spray, visual injury rating 0-100; conditions: 10 days, 0 = no effect, 100 = complete control
Procedure, shortened: (§1)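 Visual injury, scored 0-100 (100 = complete control) against untreated plants, 10 days after greenhouse treatment. Test chemicals in surfactant-containing non-phytotoxic solvent were applied in loam soil and sand, as a preemergence soil spray on seeds or postemergence to plants at the one- to two-leaf stage.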

[2] = test system: blackgrass (Alopecurus myosuroides); assay: as above; conditions: 10 days, 0 = no effect, 100 = complete control
Procedure, shortened: as §1

corn (Zea mays) [3] = assay: as above; conditions: 10 days, 0 = no effect, 100 = complete control
Procedure, shortened: as §1

[4] = test system: foxtail, giant (giant foxtail, Setaria faberi); assay: as above; conditions: 10 days, 0 = no effect, 100 = complete control
Procedure, shortened: as §1

kochia (Bassia scoparia) [5] = assay: as above; conditions: 10 days, 0 = no effect, 100 = complete control
Procedure, shortened: as §1

[6] = test system: oat, wild (wild oat, Avena fatua); assay: as above; conditions: 10 days, 0 = no effect, 100 = complete control
Procedure, shortened: as §1

[7] = test system: palmer (palmer amaranth, palmer pigweed, Amaranthus palmeri); assay: as above; conditions: 10 days, 0 = no effect, 100 = complete control
Procedure, shortened: as §1

[8] = test system: ragweed (common ragweed, Ambrosia artemisiifolia); assay: as above; conditions: 10 days, 0 = no effect, 100 = complete control
Procedure, shortened: as §1

[9] = test system: ryegrass, Italian (italian ryegrass, Lolium multiflorum); assay: as above; conditions: 10 days, 0 = no effect, 100 = complete control
Procedure, shortened: as §1

soybean (Glycine max) [10] = assay: as above; conditions: 10 days, 0 = no effect, 100 = complete control
Procedure, shortened: as §1

[11] = test system: wheat (Triticum aestivum); assay: as above; conditions: 10 days, 0 = no effect, 100 = complete control
Procedure, shortened: as §1

[12] = test system: barnyardgrass (Echinochloa crus-galli); assay: Test A postemergence application, visual injury rating 0-100; conditions: Postemergence, 10 days, 0 is no effect, 100 is complete control
Procedure, shortened: as §1

[13] = test system: blackgrass (Alopecurus myosuroides); assay: as above; conditions: Postemergence, 10 days, 0 is no effect, 100 is complete control
Procedure, shortened: as §1

corn (Zea mays) [14] = assay: as above; conditions: Postemergence, 10 days, 0 is no effect, 100 is complete control
Procedure, shortened: as §1

[15] = test system: foxtail, giant (giant foxtail, Setaria faberi); assay: as above; conditions: 10 days, 0 is no effect, 100 is complete control
Procedure, shortened: as §1

[16] = test system: galium (catchweed bedstraw, Galium aparine); assay: as above; conditions: Postemergence, 10 days, 0 is no effect, 100 is complete control
Procedure, shortened: as §1

kochia (Bassia scoparia) [17] = assay: as above; conditions: Postemergence, 10 days, 0 is no effect, 100 is complete control
Procedure, shortened: as §1

[18] = test system: oat, wild (wild oat, Avena fatua); assay: as above; conditions: Postemergence, 10 days, 0 is no effect, 100 is complete control
Procedure, shortened: as §1

[19] = test system: palmer (palmer amaranth, palmer pigweed, Amaranthus palmeri); assay: as above; conditions: Postemergence, 10 days, 0 is no effect, 100 is complete control
Procedure, shortened: as §1

[20] = test system: ragweed (common ragweed, Ambrosia artemisiifolia); assay: as above; conditions: Postemergence, 10 days, 0 is no effect, 100 is complete control
Procedure, shortened: as §1

[21] = test system: ryegrass, Italian (italian ryegrass, Lolium multiflorum); assay: as above; conditions: Postemergence, 10 days, 0 is no effect, 100 is complete control
Procedure, shortened: as §1

soybean (Glycine max) [22] = assay: as above; conditions: Postemergence, 10 days, 0 is no effect, 100 is complete control
Procedure, shortened: as §1

[23] = test system: wheat (Triticum aestivum); assay: as above; conditions: Postemergence, 10 days, 0 is no effect, 100 is complete control
Procedure, shortened: as §1

[24] = test system: barnyardgrass (Echinochloa crusgalli); assay: Test B flooded paddy test, visual plant response rating 0-100; conditions: 250 g ai/ha, Flood, applied to paddy water, evaluated after 13 days
Procedure, shortened: (§2)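 Plants were grown to the 2-leaf stage, then pots were flooded to 3 cm above the soil and test compounds were applied directly into the paddy water. Water depth was held there throughout; after 13 days in a greenhouse, injury was scored visually against untreated controls.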

[25] = test system: ducksalad (Heteranthera limosa); assay: as above; conditions: 250 g ai/ha, Flood, applied to paddy water, evaluated after 13 days
Procedure, shortened: as §2

rice (Oryza sativa) = assay: as above; conditions: 250 g ai/ha, Flood, applied to paddy water, evaluated after 13 days
Procedure, shortened: as §2

[26] = test system: sedge, umbrella (small-flower umbrella sedge, Cyperus difformis); assay: as above; conditions: 250 g ai/ha, Flood, applied to paddy water, evaluated after 13 days
Procedure, shortened: as §2

CC1(C(=O)NC2C=CC(C(=O)OCCS(C)(=O)=O)C2)CN(c2cc(F)cc(F)c2)C(=O)O1 (centres unmarked) [Compound 49]
Barnyardgrass plant response rating (0 to 100 scale) ([1]; 125 g ai/ha): 90
Barnyardgrass plant response rating (0 to 100 scale) ([1]; 500 g ai/ha): 100
Blackgrass plant response rating (0 to 100 scale) ([2]; 125 g ai/ha): 70
Blackgrass plant response rating (0 to 100 scale) ([2]; 500 g ai/ha): 80
Corn plant response rating (0 to 100 scale) (corn (Zea mays) [3]; 125 g ai/ha): 80
Corn plant response rating (0 to 100 scale) (corn (Zea mays) [3]; 500 g ai/ha): 90
Foxtail, Giant plant response rating (0 to 100 scale) ([4]; 125 g ai/ha): 90
Foxtail, Giant plant response rating (0 to 100 scale) ([4]; 500 g ai/ha): 100
Kochia plant response rating (0 to 100 scale) (kochia (Bassia scoparia) [5]; 125 g ai/ha): 90
Kochia plant response rating (0 to 100 scale) (kochia (Bassia scoparia) [5]; 500 g ai/ha): 100
Oat, Wild plant response rating (0 to 100 scale) ([6]; 125 g ai/ha): 80
Oat, Wild plant response rating (0 to 100 scale) ([6]; 500 g ai/ha): 90
Amaranth, Palmer plant response rating (0 to 100 scale) ([7]; 125 g ai/ha): 90
Amaranth, Palmer plant response rating (0 to 100 scale) ([7]; 500 g ai/ha): 100
Ragweed plant response rating (0 to 100 scale) ([8]; 125 g ai/ha): 40
Ragweed plant response rating (0 to 100 scale) ([8]; 500 g ai/ha): 90
Ryegrass, Italian plant response rating (0 to 100 scale) ([9]; 125 g ai/ha): 80
Ryegrass, Italian plant response rating (0 to 100 scale) ([9]; 500 g ai/ha): 100
Soybean plant response rating (0 to 100 scale) (soybean (Glycine max) [10]; 125 g ai/ha): 80
Soybean plant response rating (0 to 100 scale) (soybean (Glycine max) [10]; 500 g ai/ha): 90
Wheat plant response rating (0 to 100 scale) ([11]; 125 g ai/ha): 90
Wheat plant response rating (0 to 100 scale) ([11]; 500 g ai/ha): 100
Barnyardgrass plant response rating (0 to 100 scale) ([12]; 125 g ai/ha): 100
Barnyardgrass plant response rating (0 to 100 scale) ([12]; 500 g ai/ha): 100
Blackgrass plant response rating (0 to 100 scale) ([13]; 125 g ai/ha): 90
Blackgrass plant response rating (0 to 100 scale) ([13]; 500 g ai/ha): 100
Corn plant response rating (0 to 100 scale) (corn (Zea mays) [14]; 125 g ai/ha): 100
Corn plant response rating (0 to 100 scale) (corn (Zea mays) [14]; 500 g ai/ha): 100
Foxtail, Giant plant response rating (0 to 100 scale) ([15]; 125 g ai/ha): 90
Foxtail, Giant plant response rating (0 to 100 scale) ([15]; 500 g ai/ha): 90
Galium plant response rating (0 to 100 scale) ([16]; 125 g ai/ha): 70
Galium plant response rating (0 to 100 scale) ([16]; 500 g ai/ha): 80
Kochia plant response rating (0 to 100 scale) (kochia (Bassia scoparia) [17]; 125 g ai/ha): 70
Kochia plant response rating (0 to 100 scale) (kochia (Bassia scoparia) [17]; 500 g ai/ha): 80
Oat, Wild plant response rating (0 to 100 scale) ([18]; 125 g ai/ha): 90
Oat, Wild plant response rating (0 to 100 scale) ([18]; 500 g ai/ha): 90
Amaranth, Palmer / Pigweed, Palmer plant response rating (0 to 100 scale) ([19]; 125 g ai/ha): 90
Amaranth, Palmer / Pigweed, Palmer plant response rating (0 to 100 scale) ([19]; 500 g ai/ha): 100
Ragweed plant response rating (0 to 100 scale) ([20]; 125 g ai/ha): 70
Ragweed plant response rating (0 to 100 scale) ([20]; 500 g ai/ha): 70
Ryegrass, Italian plant response rating (0 to 100 scale) ([21]; 125 g ai/ha): 80
Ryegrass, Italian plant response rating (0 to 100 scale) ([21]; 500 g ai/ha): 90
Soybean plant response rating (0 to 100 scale) (soybean (Glycine max) [22]; 125 g ai/ha): 90
Soybean plant response rating (0 to 100 scale) (soybean (Glycine max) [22]; 500 g ai/ha): 90
Wheat plant response rating (0 to 100 scale) ([23]; 125 g ai/ha): 90
Wheat plant response rating (0 to 100 scale) ([23]; 500 g ai/ha): 90
Plant response rating, Barnyardgrass (0 to 100 scale, 0 is no effect and 100 is complete control) [24]: 80
Plant response rating, Ducksalad (0 to 100 scale, 0 is no effect and 100 is complete control) [25]: 90
Plant response rating, Rice (0 to 100 scale, 0 is no effect and 100 is complete control) (rice (Oryza sativa)): 55
Plant response rating, Sedge, Umbrella (0 to 100 scale, 0 is no effect and 100 is complete control) [26]: 95
